According to the NIST ThermoML archive (doi:10.1016/j.jct.2012.07.024):
Numbers after ± are expanded uncertainties.

Assays:
[1] = 101.33 kPa, Liquid; for viscosity: Concentric cylinders viscometry; for mass density: Vibrating tube method
[2] = refractive index (Na D-line) (dimensionless); settings: 101.33 kPa, Liquid, Standard Abbe refractometry

Compound | viscosity ([1]; 288.15 K) [mPa·s] | mass density ([1]; 288.15 K) [kg/m3] | viscosity ([1]; 293.15 K) [mPa·s] | mass density ([1]; 293.15 K) [kg/m3] | viscosity ([1]; 298.15 K) [mPa·s] | mass density ([1]; 298.15 K) [kg/m3] | viscosity ([1]; 303.15 K) [mPa·s] | mass density ([1]; 303.15 K) [kg/m3] | viscosity ([1]; 308.15 K) [mPa·s] | mass density ([1]; 308.15 K) [kg/m3] | viscosity ([1]; 313.15 K) [mPa·s] | mass density ([1]; 313.15 K) [kg/m3] | viscosity ([1]; 318.15 K) [mPa·s] | mass density ([1]; 318.15 K) [kg/m3] | viscosity ([1]; 323.15 K) [mPa·s] | mass density ([1]; 323.15 K) [kg/m3] | viscosity ([1]; 328.15 K) [mPa·s] | mass density ([1]; 328.15 K) [kg/m3] | viscosity ([1]; 333.15 K) [mPa·s] | mass density ([1]; 333.15 K) [kg/m3] | also measured
CC(O)CO (stereo not given) [1,2-propanediol] | 82.86 ± 1.8 | 1039.87 ± 0.14 | 59.84 ± 1.2 | 1036.25 ± 0.14 | 44.19 ± 0.9 | 1032.59 ± 0.13 | 33.29 ± 0.68 | 1028.88 ± 0.13 | 25.54 ± 0.52 | 1025.14 ± 0.13 | 19.92 ± 0.41 | 1021.35 ± 0.13 | 15.79 ± 0.32 | 1017.52 ± 0.13 | 12.76 ± 0.26 | 1013.66 ± 0.13 | 10.35 ± 0.21 | 1009.75 ± 0.13 | 8.586 ± 0.18 | 1005.79 ± 0.13 | refractive index ([2]; 288.15 K): 1.43425 ± 0.00033; refractive index ([2]; 293.15 K): 1.4326 ± 0.00033; refractive index ([2]; 298.15 K): 1.43093 ± 0.00033; refractive index ([2]; 303.15 K): 1.42927 ± 0.00033; refractive index ([2]; 308.15 K): 1.4276 ± 0.00033; refractive index ([2]; 313.15 K): 1.4259 ± 0.00033; refractive index ([2]; 318.15 K): 1.42422 ± 0.00033; refractive index ([2]; 323.15 K): 1.42252 ± 0.00033; refractive index ([2]; 328.15 K): 1.42078 ± 0.00033; refractive index ([2]; 333.15 K): 1.41909 ± 0.00033
OCCCO [propan-1,3-diol] | 68.06 ± 1.5 | 1055.96 ± 0.95 | 52.75 ± 1.2 | 1052.87 ± 0.95 | 41.97 ± 0.95 | 1049.76 ± 0.94 | 33.56 ± 0.76 | 1046.64 ± 0.93 | 27.15 ± 0.61 | 1043.5 ± 0.93 | 22.22 ± 0.5 | 1040.35 ± 0.92 | 18.35 ± 0.41 | 1037.18 ± 0.91 | 15.29 ± 0.34 | 1033.98 ± 0.91 | 12.84 ± 0.29 | 1030.77 ± 0.9 | 10.96 ± 0.25 | 1027.53 ± 0.89 | refractive index ([2]; 288.15 K): 1.44073 ± 0.00051; refractive index ([2]; 293.15 K): 1.43932 ± 0.00051; refractive index ([2]; 298.15 K): 1.43792 ± 0.00051; refractive index ([2]; 303.15 K): 1.43654 ± 0.00051; refractive index ([2]; 308.15 K): 1.43513 ± 0.00051; refractive index ([2]; 313.15 K): 1.43375 ± 0.00051; refractive index ([2]; 318.15 K): 1.43232 ± 0.00051; refractive index ([2]; 323.15 K): 1.43087 ± 0.00051; refractive index ([2]; 328.15 K): 1.42945 ± 0.00051; refractive index ([2]; 333.15 K): 1.42803 ± 0.00051
